Assay results reported in patent US8445502B2, “Pharmaceutical formulations comprising salts of a protein kinase inhibitor and methods of using same” (Astex Pharmaceuticals, Inc., priority 2007, dated 2013).

Key:
DMS-114 SCLC cells = experiment: Sensitization of SCLC cells to etoposide; assay type: cell-based; conditions: Homo sapiens; DMS-114, single agent
Protocol: (§1) Therefore, to determine if MP470 would increase sensitivity to etoposide treatment, SCLC cells were treated with the agents individually and in combination. […] Two sub-IC50 doses of MP470.HCl were tested in combination with etoposide to evaluate possible synergism and a resulting lower IC50 value for etoposide in each of the cell lines.

DMS-153 SCLC cells = experiment: Sensitization of SCLC cells to etoposide; assay type: cell-based; conditions: Homo sapiens; DMS-153, single agent
Protocol: as §1

Rad51 = Rad51 immunohistochemistry in dog colon and skin; assay type: in vivo; conditions: for Rad 51 Result: 2 wk post treatment with 300 mg/kg/day × 28, dog 302786
Protocol: A study was performed to develop a testing procedure for validation of IHC Biomarker RAD51 for the staining of tissue micro arrays (TMA). An experimental […] antibody was used (Spring Bioscience Anti-RAD51) and run using testis and lung as control tissues. The antibody was run using the Dako Envision+ detection kit. The incubation times ranged from 15 minutes to 60 minutes. Each experiment was run with and without an antigen retrieval solution with a pH of 6.0. The dilutions used for the Spring Bioscience Anti-RAD51 ranged from 1:50 to 1:500. The best results were obtained when incubated for 30 minutes, with a dilution of 1:50, using the Dako Envision+ detection kit, with antigen retrieval at the pH of 6.0 based on manual scoring by a board certified pathologist. […] Rare nuclear staining was observed.
A study was conducted to investigate the changes in RAD51 expression levels after chronic treatment with MP470 hydrochloride salt two weeks post treatment with oral once daily dosing for 28 days at 300 mg/kg compared to the control (vehicle only, no drug) to healthy dogs. Tissue specimens from the colon and skin were analyzed for RAD51 expression using the procedure described above. The data in Table 9 confirm that MP470.HCl suppresses and sustains the suppression of RAD51 expression levels in normal proliferating tissues such as in colon and skin.
Dose-response effects of MP470.HCl on Rad51 were evaluated in normal beagle dogs that were administered MP470.HCl orally. Colon and skin tissues were obtained from five different groups, including vehicle control group, three groups of differing dose levels of MP470.HCl following a 28 day daily treatment with MP470.HCl, and a post-treatment recovery group two weeks after treatment daily for 28 days with 300 mg/kg of MP470.HCl. These tissue specimens were stained for Rad51 using immunohistochemistry (IHC) techniques on an automated staining platform. A mouse Anti-Rad51 antibody was used for this purpose. Positive and negative controls were used to validate the staining procedure. The data is reported as a percentage based on the scoring of the staining intensity by a board-certified pathologist. Staining intensity was reported as mean percent for n=3 in all cases except the recovery group, where n=1.

[1] = both, Sprague Dawley, rat, in vivo, 72 h
Protocol: Four groups of Sprague Dawley rats, each consisting of two males and two females, received escalating single doses of 100, 200, 800 and 2000 mg/kg of the test article. MP470.HCl was suspended in an aqueous vehicle constituting 0.5% w/v carboxymethylcellulose and administered by oral gavage. […] Doses were based on body weights on the day of dosing. The animals were euthanized after the last observation. […] A single oral dose no-observed-effect level (NOEL) was 2000 mg/kg. Acute maximum tolerated dose (MTD) was greater than 2000 mg/kg (highest dose tested).

[2] = 28-day chronic oral tolerability and toxicokinetics in dog; assay type: in vivo; conditions: for mean liver weights compared with the control group / mean liver weights relative to brain weights compared with the control group: dosing period; for mean heart weights relative to body weight compared with the control group: recovery period; for AUC / Cmax / half-life: po
Protocol: In a chronic tolerability study of MP470 hydrochloride salt in the dog, groups of six male and six female dogs received 0, 30, 100, or 300 mg/kg/day of the test article (Groups 1-4, respectively) for 28 days. MP470.HCl was administered, by capsule, as a dry powder blend with sodium lauryl sulfate. […] In males, increased incidences of emesis and soft feces/diarrhea for Groups 3-4 and discolored and mucoid feces for Groups 2-4 were observed. In females, increased incidences of emesis and mucoid feces for Group 4, increased incidences of soft feces/diarrhea for Groups 3-4, and discolored feces for Groups 2-4 were noted. These clinical abnormalities were not considered adverse. No test article-related effects on body weight or food consumption were observed during the dosing or recovery periods. No test-article related lesions were noted during ophthalmic examinations and all electrocardiograms of the test and control animals were within normal limits. No test article related effects on hematology or urinalysis parameters were observed during the dosing or recovery periods.
Test article related effects on clinical chemistry parameters during the dosing period were limited to lower mean serum aspartate aminotransferase (75%) and plasma thyroxine (50%) levels for the Group 4 males when compared with the control group. […] Test article related organ weight changes during the recovery period were limited to statistically lower mean heart weights relative to body weight for the Group 3-4 females (85 and 89%, respectively) when compared with the control group.
There was adequate systemic exposure, in general plasma concentration of the test article increased relatively rapidly after treatment, followed by a steady decline for all dose groups and both sexes. Systemic exposure to the test article, as measured by Cmax and AUC, increased with increasing dose in both sexes, but the increase was generally less than dose proportional. No significant differences in exposure to the test article were observed between male and female dogs. No accumulation of the drug was evident as measured by difference in exposure between day 0 and day 27. The time to reach maximal plasma concentration (t-max) ranged from 2-4 hours for Groups 2 and 3 and ranged from 2-8 hours for Group 4. The terminal half-lives varied widely and ranged from 7-84.7 hours for Group 2, 16-47.7 hours for Group 3 and 10.5-28 hours for Group 4. […] There was a large variability in exposure.
A NOEL could not be determined; the no-observed-adverse-effect level (NOAEL) was considered to be 300 mg/kg/day (6000 mg/m2/d) for both sexes. A STD could not be calculated in this study and is likely to be higher than 300 mg/kg/day (6000 mg/m2/d).

[3] = Group 3 females (100 mg/kg/day)
[4] = Group 4 females (300 mg/kg/day)
[5] = both sexes, beagle, dog, in vivo, 30 mg/kg/day
[6] = both sexes, beagle, dog, in vivo, 100 mg/kg/day
[7] = both sexes, beagle, dog, in vivo, 300 mg/kg/day

Cl.S=C(NCc1ccc2c(c1)OCO2)N1CCN(c2ncnc3c2oc2ccccc23)CC1 [MP470.HCl, 4-[1]benzofuro[3,2-d]pyrimidin-4-yl-N-(1,3-benzodioxol-5-ylmethyl)piperazine-1-carbothioamide hydrochloride]
IC50 (DMS-114 SCLC cells): 0.98 µM
IC50 (DMS-153 SCLC cells): 5.14 µM
Rad51 staining Skin (%) (Rad51; 30 mg/Kg oral daily 28 days, n=3 (vehicle 20)): 14%
Rad51 staining Colon (%) (Rad51; 30 mg/Kg oral daily 28 days, n=3 (vehicle 71)): 61%
Rad51 staining Skin (%) (Rad51; 100 mg/Kg oral daily 28 days, n=3 (vehicle 20)): 17%
Rad51 staining Colon (%) (Rad51; 100 mg/Kg oral daily 28 days, n=3 (vehicle 71)): 56%
Rad51 staining Skin (%) (Rad51; 300 mg/Kg oral daily 28 days, n=3 (vehicle 20)): 11%
Rad51 staining Colon (%) (Rad51; 300 mg/Kg oral daily 28 days, n=3 (vehicle 71)): 35%
suppression of Rad51 in tissues of dogs (Rad51; 30, 100, 300 mg/kg oral daily 28 days): dose-dependent suppression of Rad51
Rad 51 Result (Rad51; Colon): 58%
Rad51 staining Skin (%) (Rad51; Recovery (2 wk post treatment with 300 mg/kg), n=1 (vehicle 20)): 7%
Rad51 staining Colon (%) (Rad51; Recovery (2 wk post treatment with 300 mg/kg), n=1 (vehicle 71)): 19%
Rad 51 Result (Rad51; Skin): 12%
single oral dose no-observed-effect level (NOEL) [1]: 2000 mg/kg
Acute maximum tolerated dose (MTD) ([1]; po): greater than 2000 mg/kg
mean liver weights compared with the control group ([2]; Group 2 females (30 mg/kg/day)): 124%
mean liver weights relative to brain weights compared with the control group ([2]; Group 2 females (30 mg/kg/day)): 117%
mean liver weights compared with the control group [2, 3]: 123%
mean liver weights relative to brain weights compared with the control group [2, 3]: 121%
mean heart weights relative to body weight compared with the control group [2, 3]: 85%
mean liver weights compared with the control group [2, 4]: 119%
mean liver weights relative to brain weights compared with the control group [2, 4]: 120%
mean heart weights relative to body weight compared with the control group [2, 4]: 89%
NOAEL at 28 days ([2]; beagle, dog, in vivo, dogs, both sexes, 28 days, read-out: no-observed-adverse-effect level (NOAEL)): 300 mg/kg/day
AUC [2, 5]: 97.9 to 1130 ng·h/mL
Cmax [2, 5]: 42.5 to 154 ng/mL
half-life [2, 5]: 7 to 84.7 h
AUC [2, 6]: 257 to 2530 ng·h/mL
Cmax [2, 6]: 78.3 to 231 ng/mL
half-life [2, 6]: 16 to 47.7 h
AUC [2, 7]: 559 to 4890 ng·h/mL
Cmax [2, 7]: 192 to 329 ng/mL
half-life [2, 7]: 10.5 to 28 h
STD (severely toxic dose) ([2]; both, beagle, dog, in vivo, 28 days): > 6000 mg/m2/d
mortalities ([2]; dogs, 30, 100 or 300 mg/kg/day by capsule, 28 days): no mortalities
time to reach maximal plasma concentration (t-max) ([2]; dogs, Group 4 (300 mg/kg/day)): 2 to 8 h
time to reach maximal plasma concentration (t-max) ([2]; dogs, Groups 2 and 3 (30 and 100 mg/kg/day)): 2 to 4 h
no-observed-adverse-effect level (NOAEL) ([2]; dogs, both sexes, 28 days): 6000 mg/m2/d
